Patent US9181258B2, “Substituted 3,4-dihydropyrrolo[1,2-a]pyrazin-1(2H)-ones as protein kinase inhibitors” (NERVIANO MEDICAL SCIENCES S.R.L., priority 2011, dated 2015)
Where a name gives a salt, the structure may show the parent alone.

What was measured:
[1] = test system: BaF3-PIM1 cells; assay: In vitro cell proliferation assay (CellTiter-Glo), BaF3-PIM1; format: cell-based; details: 72 hours
Procedure: In Vitro Cell Proliferation Assay
BaF3-PIM1 and MV-4-11 cells were seeded at 125 cells/well and 1250 cells/well respectively in a 384-well white plates in complete medium and treated with compounds dissolved in 0.1% DMSO, 24 h after seeding.
The cells were incubated at 37° C. and 5% CO2 and after 72 hours the plates were processed using CellTiter-Glo assay (Promega) following the manufacturer's instruction.
CellTiter-Glo was a homogenous method based on the quantification of the ATP present, an indicator of metabolitically active cells. ATP was quantified using a system based on luciferase and D-luciferin resulting into light generation. The luminescent signal was proportional to the number of cells present in culture.
Briefly 25 μl/well reagent solution were added to each wells and after 5 minutes shacking microplates were red by Envision (PerkinElmer) luminometer. The luminescent signal was proportional to the number of cells present in culture.
Inhibitory activity was evaluated comparing treated versus control data using Assay Explorer (MDL) program. IC50 was calculated using sigmoidal interpolation curve.

[2] = molecular target: human PIM2 (Homo sapiens (Human), UniProt Q9P1W9); assay: PIM2 kinase inhibition assay: Dowex technique; format: biochemical; details: ATP 4 μM, Aktide 5 μM, enzyme 1.5 nM; read-out: PIM-2 IC50
Procedure: Method for PIM2 Kinase Inhibition Assay: Dowex Technique
The buffer for PIM2 assay was composed of HEPES 50 mM, at pH 7.5, with 1 mM MgCl2, 1 mM DTT, 3 μM Na3VO4, and 0.2 mg/mL BSA.
Full-length human PIM2 was expressed and purified as described in Fedorov O, et al., PNAS 2007 104, 51, 20523-28. ii. Assay Conditions (Final Concentrations)
Enzyme concentration=1.5 nM; ATP=4 μM; ^33P-γ-ATP=1 nM
Aktide substrate (Chemical Abstract Service Registry Number 324029-01-8)=5 μM iii. Robotized Dowex Assay
See above: same procedure as described for PIM1.

[3] = molecular target: human PIM1 (Homo sapiens (Human), UniProt P11309); assay: Biochemical assay for inhibitors of PIM1 kinase activity (trans-phosphorylation, Dowex technique); details: ATP 200 μM, Aktide 25 μM, enzyme 1 nM; read-out: PIM-1 IC50
Procedure: Biochemical Assay for Inhibitors of PIM1 Kinase Activity
The inhibitory activity of putative kinase inhibitors and the potency of selected compounds were determined using a trans-phosphorylation assay.
Specific peptide or protein substrates were trans-phosphorylated by their specific ser-thr or tyr kinase in the presence of ATP traced with ^33P-γ-ATP, and in the presence of their own optimal buffer and cofactors.
At the end of the phosphorylation reaction, more than 98% unlabeled ATP and radioactive ATP were captured by an excess of the ion exchange dowex resin; the resin then settled down to the bottom of the reaction plate by gravity. Supernatant was subsequently withdrawn and transferred into a counting plate, then evaluated by β-counting.
Reagents/Assay Conditions i. Dowex Resin Preparation
500 g of wet resin (SIGMA, custom prepared resin DOWEX 1×8 200-400 mesh, 2.5 Kg) were weighed out and diluted to 2 L in 150 mM sodium formate, pH 3.00.
The resin was allowed to settle down (some hours) and then the supernatant was discarded.
After three washes as above over a couple of days, the resin was allowed to settle and two volumes (wrt the resin volume) of 150 mM sodium formate buffer were added.
The pH was then measured and should have been around 3.00.
The washed resin was stable for more than one week; the stock resin was kept at 4° C. before use.
The buffer for PIM1 assay was composed of HEPES 50 mM, at pH 7.5, with 10 mM MgCl2, 1 mM DTT, 3 μM NaVO3, and 0.2 mg/mL BSA.
Full-length human PIM1 was expressed and purified as described in Bullock A N, et al., J. Biol. Chem. 2005, 280, 41675-82.
1.7 μM PIM1 was incubated 1 h at 28° C. in the presence of 125 μM ATP.
ATP concentration: 200 μM; ^33P-γ-ATP: 6 nM; Enzyme concentration: 1 nM Substrate concentration Aktide (Chemical Abstract Service Registry Number 324029-01-8): 25 μM iv. Robotized Dowex Assay
The test mix consisted of:
1) 3× Enzyme mix (done in Kinase Buffer 3×), 5 μL/well
2) 3× substrate and ATP mix (done in ddH2O), together with ^33P-γ-ATP, 5 μL/well 3) 3× test compounds (diluted into ddH2O—3% DMSO)—5 μL/well See below for compound dilution and assay scheme […]
An automated station (Biomek FX, Beckman) was used for serial dilutions, producing 1:3 dilutions in 100% DMSO, from line A1 to A10, for all the compounds in the column.
Data were analyzed by an internally customized version of the “Assay Explorer” SW package, which provided sigmoidal fitting of the ten-dilution curves for IC50 determination in secondary assay/hit confirmation routines.

Chain of human PIM1 (P11309 whole entry): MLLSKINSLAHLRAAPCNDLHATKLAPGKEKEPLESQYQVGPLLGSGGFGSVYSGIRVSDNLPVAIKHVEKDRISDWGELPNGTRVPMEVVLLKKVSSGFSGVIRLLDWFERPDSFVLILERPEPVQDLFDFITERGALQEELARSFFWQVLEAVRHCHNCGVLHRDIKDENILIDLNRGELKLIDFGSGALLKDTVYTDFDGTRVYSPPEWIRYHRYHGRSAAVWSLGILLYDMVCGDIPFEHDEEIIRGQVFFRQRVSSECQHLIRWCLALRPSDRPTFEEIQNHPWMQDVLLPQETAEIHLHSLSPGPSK
Chain of human PIM2 (Q9P1W9 whole entry): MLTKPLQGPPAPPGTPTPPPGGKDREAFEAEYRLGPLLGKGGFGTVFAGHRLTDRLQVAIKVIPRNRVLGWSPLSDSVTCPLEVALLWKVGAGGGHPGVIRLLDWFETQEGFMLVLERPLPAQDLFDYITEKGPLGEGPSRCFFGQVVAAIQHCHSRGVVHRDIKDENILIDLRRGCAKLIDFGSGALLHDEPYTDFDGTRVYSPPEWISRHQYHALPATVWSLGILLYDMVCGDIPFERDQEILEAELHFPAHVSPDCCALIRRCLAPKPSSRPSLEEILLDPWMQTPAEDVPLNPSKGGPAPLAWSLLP

| Structure (SMILES) | IC50 [1] | IC50 [2] | IC50 [3] |
| --- | --- | --- | --- |
| NCCC1CNC(=O)c2cc(-c3cccc(Cl)c3)c(-c3ccccc3)n21 (stereo not drawn) [Compound 17, 4-(2-aminoethyl)-7-(3-chlorophenyl)-6-phenyl-3,4-dihydropyrrolo[1,2-a]pyrazin-1(2H)-one trifluoroacetate] | 450 nM | 117 nM | 34 nM |
| NCCC1CNC(=O)c2cc(-c3cccc(OC(F)(F)F)c3)c(-c3cccc(N)c3)n21 (stereo not drawn) [Compound 32, 4-(2-aminoethyl)-6-(3-aminophenyl)-7-[3-(trifluoromethoxy)phenyl]-3,4-dihydropyrrolo[1,2-a]pyrazin-1(2H)-one hydrochloride] | 2020 nM | 69 nM | 8 nM |
| NCCC1CNC(=O)c2cc(-c3cccc(OC(F)(F)F)c3)c(-c3ccc(CO)cc3)n21 (stereo not drawn) [Compound 33, 4-(2-aminoethyl)-6-[4-(hydroxymethyl)phenyl]-7-[3-(trifluoromethoxy)phenyl]-3,4-dihydropyrrolo[1,2-a]pyrazin-1(2H)-one hydrochloride] | 598 nM | 15 nM | 4 nM |
| NCCC1CNC(=O)c2cc(-c3cccc(C(F)(F)F)c3)c(-c3ccc(CO)cc3)n21 (stereo not drawn) [Compound 38, 4-(2-aminoethyl)-6-[4-(hydroxymethyl)phenyl]-7-[3-(trifluoromethyl)phenyl]-3,4-dihydropyrrolo[1,2-a]pyrazin-1(2H)-one hydrochloride] | 3030 nM | 102 nM | 20 nM |
| NCCC1CNC(=O)c2cc(-c3cccc(C(F)(F)F)c3)c(-c3ccc(O)cc3)n21 (stereo not drawn) [Compound 43, 4-(2-aminoethyl)-6-(4-hydroxyphenyl)-7-[3-(trifluoromethyl)phenyl]-3,4-dihydropyrrolo[1,2-a]pyrazin-1(2H)-one hydrochloride] | 7000 nM | 21 nM | 12 nM |
| NCCC1CNC(=O)c2cc(-c3ccnc(Cl)c3)c(-c3ccc(CO)cc3)n21 (stereo not drawn) [Compound 44, 4-(2-aminoethyl)-7-(2-chloropyridin-4-yl)-6-[4-(hydroxymethyl)phenyl]-3,4-dihydropyrrolo[1,2-a]pyrazin-1(2H)-one hydrochloride] | 6570 nM | 110 nM | 24 nM |
| NC(=O)c1ccc(-c2c(-c3cccc(OC(F)(F)F)c3)cc3n2C(CCO)CNC3=O)cc1 (stereo not drawn) [Compound 77, 4-{4-(2-hydroxyethyl)-1-oxo-7-[3-(trifluoromethoxy)phenyl]-1,2,3,4-tetrahydropyrrolo[1,2-a]pyrazin-6-yl}benzamide] | 2320 nM | 58 nM | 7 nM |
| CN(C)CCNC(=O)c1ccc(-c2c(-c3cccc(OC(F)(F)F)c3)cc3n2C(CCO)CNC3=O)cc1 (stereo not drawn) [Compound 78, N-[2-(dimethylamino)ethyl]-4-{4-(2-hydroxyethyl)-1-oxo-7-[3-(trifluoromethoxy)phenyl]-1,2,3,4-tetrahydropyrrolo[1,2-a]pyrazin-6-yl}benzamide trifluoroacetate] | 4070 nM | 90 nM | 6 nM |
| CN(C)C(=O)c1ccc(-c2c(-c3cccc(OC(F)(F)F)c3)cc3n2C(CCO)CNC3=O)cc1 (stereo not drawn) [Compound 79, 4-{4-(2-hydroxyethyl)-1-oxo-7-[3-(trifluoromethoxy)phenyl]-1,2,3,4-tetrahydropyrrolo[1,2-a]pyrazin-6-yl}-N,N-dimethylbenzamide] | 1220 nM | 93 nM | 13 nM |
| CNC(=O)c1ccc(-c2c(-c3cccc(OC(F)(F)F)c3)cc3n2C(CCO)CNC3=O)cc1 (stereo not drawn) [Compound 80, 4-{4-(2-hydroxyethyl)-1-oxo-7-[3-(trifluoromethoxy)phenyl]-1,2,3,4-tetrahydropyrrolo[1,2-a]pyrazin-6-yl}-N-methylbenzamide] | 3810 nM | 75 nM | 20 nM |
